Reference: patent US10870634B2, “Histone demethylase inhibitors” (CELGENE QUANTICEL RESEARCH, INC., priority 2016, dated 2020)

How the values were obtained:
[1] = biological target: T1, Jarid1B (Homo sapiens, UniProt Q9UGL1); experiment: Jarid1B in vitro enzyme inhibition assay (TR-FRET); type: biochemical; conditions: 0.8 nM Jarid1B, 300 nM H3K4me3-biotin peptide, 2 μM alpha-ketoglutaric acid
T1 construct: purchased BPS Bioscience (or custom made by MolecularThroughput) 50121
T1 sequence (Q9UGL1 2-751): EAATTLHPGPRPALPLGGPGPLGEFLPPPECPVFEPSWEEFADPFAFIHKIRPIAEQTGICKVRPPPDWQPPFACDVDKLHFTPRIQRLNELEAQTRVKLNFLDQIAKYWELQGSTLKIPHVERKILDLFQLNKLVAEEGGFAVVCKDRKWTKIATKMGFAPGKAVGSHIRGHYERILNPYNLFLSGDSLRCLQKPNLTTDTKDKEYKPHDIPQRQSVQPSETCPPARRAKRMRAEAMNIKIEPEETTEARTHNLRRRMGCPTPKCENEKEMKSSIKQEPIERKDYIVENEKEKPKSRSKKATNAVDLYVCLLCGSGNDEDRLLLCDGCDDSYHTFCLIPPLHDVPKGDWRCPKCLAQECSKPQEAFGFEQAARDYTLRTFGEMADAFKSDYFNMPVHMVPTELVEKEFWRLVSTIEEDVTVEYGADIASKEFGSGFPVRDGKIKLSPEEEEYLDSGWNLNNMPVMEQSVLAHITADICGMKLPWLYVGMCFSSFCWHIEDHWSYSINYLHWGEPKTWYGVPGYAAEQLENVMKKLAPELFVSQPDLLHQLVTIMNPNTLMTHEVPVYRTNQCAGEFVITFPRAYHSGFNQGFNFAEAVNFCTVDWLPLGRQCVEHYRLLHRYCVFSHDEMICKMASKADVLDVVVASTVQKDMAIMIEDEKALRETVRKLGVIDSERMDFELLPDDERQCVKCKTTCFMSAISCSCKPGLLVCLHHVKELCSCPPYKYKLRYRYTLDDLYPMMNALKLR
Excerpt: (§1) This assay determines the ability of a test compound to inhibit Jarid1B, JMJD2C and JMJD3 demethylase activity. Baculovirus-expressed Jarid1B (GenBank Accession # NM-006618, AA 2-751) was purchased from BPS Bioscience (Cat #50121) or custom made by MolecularThroughput. Baculovirus-expressed JMJD2C (GenBank Accession # BC143571, AA 2-372) was purchased from BPS Bioscience (Cat #50105). Baculovirus-expressed JMJD3 (GenBank Accession # NM_001080424, AA1043-end) was purchased from BPS Bioscience (Cat #50115).
The ability of test compounds to inhibit the activity of Jarid1B was determined in 384-well plate format under the following reaction conditions: 0.8 nM Jarid1B, 300 nM H3K4me3-biotin labeled peptide (Anaspec cat #64357), 2 μM alpha-ketoglutaric acid in assay buffer of 50 mM HEPES, pH 7.3, 0.005% Brij35, 0.5 mM TCEP, 0.2 mg/ml BSA, 50 μM sodium L-ascorbate, and […] ammonium ironII sulfate. Reaction product was determined quantitatively by TR-FRET after the addition of detection reagent Phycolink Streptavidin-allophycocyanin (Prozyme) and Europium-anti-mono-or di-methylated historic H3 lysine 4 (H3K4me1-2) antibody (PerkinElmer) in the presence of 5 mM EDTA in LANCE detection buffer (PerkinElmer) at a final concentration of 25 nM and 1 nM, respectively.
The assay reaction was initiated by the following: 2 μl of the mixture of 900 nM H3K4me3-biotin labeled peptide and 6 μM alpha-ketoglutaric acid with 2 μl of 11-point serial diluted inhibitor in 3% DMSO was added to each well of the plate, followed by the addition of 2 μl of 2.4 nM Jarid1B to initiate the reaction. […] Plates were read by EnVisionMultilabel Reader in TR-FRET mode (excitation at 320 nm, emission at 615 nm and 665 nm) after 1 hr incubation at room temp. A ratio was calculated (665/615) for each well and fitted to determine inhibition constant (IC50).
(§2) The ability to inhibit demethylase activity was quantified and the respective IC50 value was determined for substituted triazolylpyridine derivative compounds. […]

[2] = biological target: T2, JMJD3 (Homo sapiens, UniProt O15054); experiment: JMJD3 in vitro enzyme inhibition assay (AlphaScreen); type: biochemical; conditions: 1 nM JMJD3, 250 nM H3K27me3-biotin peptide, 1 μM alpha-ketoglutaric acid
T2 construct: purchased BPS Bioscience 50115
T2 sequence (O15054 1043-1682 isoform O15054-1): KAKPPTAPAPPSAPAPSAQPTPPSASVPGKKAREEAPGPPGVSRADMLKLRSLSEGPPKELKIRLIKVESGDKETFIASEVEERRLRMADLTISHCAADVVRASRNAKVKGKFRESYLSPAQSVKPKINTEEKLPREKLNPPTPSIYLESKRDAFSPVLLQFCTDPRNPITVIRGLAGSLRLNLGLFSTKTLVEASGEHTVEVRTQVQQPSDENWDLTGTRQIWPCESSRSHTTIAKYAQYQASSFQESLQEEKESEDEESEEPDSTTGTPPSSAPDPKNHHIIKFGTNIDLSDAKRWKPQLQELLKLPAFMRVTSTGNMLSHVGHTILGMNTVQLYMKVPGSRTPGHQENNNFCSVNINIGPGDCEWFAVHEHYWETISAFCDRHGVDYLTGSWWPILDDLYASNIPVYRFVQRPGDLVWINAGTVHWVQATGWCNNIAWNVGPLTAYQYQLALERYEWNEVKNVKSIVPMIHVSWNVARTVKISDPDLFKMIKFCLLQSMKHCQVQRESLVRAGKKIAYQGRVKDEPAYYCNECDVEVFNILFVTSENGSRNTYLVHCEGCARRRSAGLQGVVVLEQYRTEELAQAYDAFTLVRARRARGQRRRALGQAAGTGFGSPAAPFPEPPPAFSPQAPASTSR
Excerpt: as §1
The ability of test compounds to inhibit the activity of JMJD3 was determined in 384-well plate format under the following reaction conditions: 1 nM JMJD3, 250 nM H3K27me3-biotin labeled peptide (Anaspec cat #64367), 1 μM alpha-ketoglutaric acid in assay buffer of 50 mM HEPES, pH 7.3, 0.005% Brij35, 0.5 mM TCEP, 0.2 mg/ml BSA, 50 μM sodium L-ascorbate, 5 μM ammonium ironII sulfate. Reaction product is determined quantitatively by AlphaScreen detection after the addition of detection reagents anti-H3K27me1 antibody, 5 μg/ml AlphaScreen® Streptavidin-coated Donor beads, and 5 μg/ml. AlphaScreen® Protein A Acceptor beads in 50 mM HEPES, pH 7.3, 10 mM NaCl, 0.005% Brij35, 10 mM :EDTA, 2 mg/ml BSA.
The assay reaction was initiated by the following: 3 μl of the mixture of 750 nM H3K27me3-biotin labeled peptide and 3 μM alpha-ketoglutaric acid with 3 μl of 11-point serial diluted inhibitor in 3% DMSO are added to each well of 384-well Proxiplate (Perkin Elmer), followed by the addition of 3 μl of 3 nM JMJD3 to initiate the reaction. The reaction mixture was incubated at room temp for 20 min, and terminated by the addition of 3 μl of appropriate dilution of anti-H3K27me1 antibody in 50 mM HEPES, pH 7.3, 10 mM NaCl, 0.005% Brij35, 10 mM EDTA, 2 mg/ml BSA. […] Plates were read by EnVision Multilabel Reader in AlphaScreen mode after minimum 2 hr incubation at room temp. […]
as §2

IC50 [1] [µM]	IC50 [2] [µM]	SMILES
> 10	> 10	Fc1cnccc1-c1nn[nH]c1C(F)(F)F [Example 1, 3-fluoro-4-[5-(trifluoromethyl)-1H-1,2,3-triazol-4-yl]pyridine]
> 10	> 10	Fc1ccc(Cl)cc1Nc1cnccc1-c1nn[nH]c1C(F)(F)F [Example 2, N-(5-chloro-2-fluorophenyl)-4-[5-(trifluoromethyl)-1H-1,2,3-triazol-4-yl]pyridin-3-amine]
> 10	> 10	FC(F)(F)c1[nH]nnc1-c1ccncc1NCC1CCCc2ccccc21 (stereo not drawn) [Example 3, N-[(1,2,3,4-tetrahydronaphthalen-1-yl)methyl]-4-[5-(trifluoromethyl)-1H-1,2,3-triazol-4-yl]pyridine-3-amine]
